This note sets out measurements from patent US11261186B2, “Biaryl derivative as GPR120 agonist” (LG CHEM, LTD., priority 2014, dated 2022).

Bounds are passed on as bounds.

This assay has as its target T1, hGPR120 (Homo sapiens, UniProt Q5NUL3).
T1 construct: expressed in transfected cells; host or cells: CHO-K1
T1 sequence (Q5NUL3 1-361): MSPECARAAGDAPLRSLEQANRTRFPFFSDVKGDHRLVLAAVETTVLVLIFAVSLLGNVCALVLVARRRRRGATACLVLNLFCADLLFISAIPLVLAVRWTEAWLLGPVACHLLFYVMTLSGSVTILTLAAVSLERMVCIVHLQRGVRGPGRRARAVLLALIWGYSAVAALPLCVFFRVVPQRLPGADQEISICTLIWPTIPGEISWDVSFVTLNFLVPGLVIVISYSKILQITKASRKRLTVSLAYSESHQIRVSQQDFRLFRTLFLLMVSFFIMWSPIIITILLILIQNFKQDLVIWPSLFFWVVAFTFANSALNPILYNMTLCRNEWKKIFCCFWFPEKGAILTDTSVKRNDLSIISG
Description: Measurement of Activity of GPR120 Agonist (Cell-Based Assay), Calcium 5 dye fluorescence. The note with it: CHO-K1 cells expressing Ga16 and hGPR120. The procedure, abridged: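 Fluorescence increase (Ex 485 nm, Em 525 nm) after agonist addition was calculated as relative percent of the 1% DMSO-only signal. Cells were CHO-K1 stably carrying Gα16 plus human GPR120, dye-loaded for 1 h after overnight (18 h) culture.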
One may read the EC50 as the concentration at which the effect is half-maximal. Consider `O=C(O)CCCn1ccc2cc(-c3cccnc3SC3CCCC3)ccc21` [Example 200, 4-[5-(2-cyclopentylsulfanyl-pyridin-3-yl)-indol-1-yl]-butyric acid], for which the EC50 lay in the range of 200 to 2000 nM. Regarding `CN(CCCC(=O)O)c1c(F)cc(-c2cccc(N3CCCC3)c2)cc1F` [Example 201, 4-[(3,5-difluoro-3′-pyrrolidin-1-yl-biphenyl-4-yl)-methyl-amino]-butyric acid], the EC50 is 200 to 2000 nM. As to `CN(CCCC(=O)O)c1c(F)cc(-c2cccc(SC3CCC3)n2)cc1F` [Example 202, 4-{[4-(6-cyclobutylsulfanyl-pyridin-2-yl)-2,6-difluoro-phenyl]-methyl-amino}-butyric acid], the EC50 is below 200 nM. As for `CN(CCCC(=O)O)c1c(F)cc(-c2cccc3c2OC(F)(F)O3)cc1F` [Example 203, 4-{[4-(2,2-difluoro-benzo[1,3]dioxol-4-yl)-2,6-difluoro-phenyl]-methyl-amino}-butyric acid], the figure is below 200 nM; as for `CN(CCCC(=O)O)c1c(F)cc(-c2cccc(OC3CCCC3)n2)cc1F` [Example 204, 4-{[4-(6-cyclopentyloxy-pyridin-2-yl)-2,6-difluoro-phenyl]-methyl-amino}-butyric acid], below 200 nM. As for `CN(CCCC(=O)O)c1c(F)cc(-c2cccc(OC3CCC3)n2)cc1F` [Example 205, 4-{[4-(6-cyclobutoxy-pyridin-2-yl)-2,6-difluoro-phenyl]-methyl-amino}-butyric acid], the figure is below 200 nM. Next, `CN(CCCC(=O)O)c1c(F)cc(-c2cccnc2OC2CCC2)cc1F` [Example 206, 4-{[4-(2-cyclobutoxy-pyridin-3-yl)-2,6-difluoro-phenyl]-methyl-amino}-butyric acid]: below 200 nM. With `CCCSc1ncccc1-c1cc(F)c(N(C)CCCC(=O)O)c(F)c1` [Example 207, 4-{[2,6-difluoro-4-(2-propylsulfanyl-pyridin-3-yl)-phenyl]-methyl-amino}-butyric acid], the EC50 was below 200 nM. As for `CCSc1ncccc1-c1cc(F)c(N(C)CCCC(=O)O)c(F)c1` [Example 208, 4-{[4-(2-ethylsulfanyl-pyridin-3-yl)-2,6-difluoro-phenyl]-methyl-amino}-butyric acid], the figure is below 200 nM; as for `CN(CCCC(=O)O)c1ccc(-c2cccnc2SC2CCC2)cc1F` [Example 209, 4-{[4-(2-cyclobutylsulfanyl-pyridin-3-yl)-2-fluoro-phenyl]-methyl-amino}-butyric acid], below 200 nM.

With `O=C(O)C1CC1CNc1c(F)cc(-c2cccnc2SC2CCCC2)cc1F` (centres unmarked) [Example 210, 2-{[4-(2-cyclopentylsulfanyl-pyridin-3-yl)-2,6-difluoro-phenylamino]-methyl}-cyclopropanecarboxylic acid], the EC50 was below 200 nM. Next, `O=C(O)C1CC1CNc1ccc(-c2cccnc2SC2CCCC2)cc1` (centres unmarked) [Example 211, 2-{[4-(2-cyclopentylsulfanyl-pyridin-3-yl)-phenylamino]-methyl}-cyclopropanecarboxylic acid]: 200 to 2000 nM.

Regarding `CC(C)Sc1ncccc1-c1ccc(N(C)CCCC(=O)O)c(F)c1` [Example 212, 4-{[2-fluoro-4-(2-isopropylsulfanyl-pyridin-3-yl)-phenyl]-methyl-amino}-butyric acid], the EC50 is below 200 nM.

On to `CN(CCCC(=O)O)c1ccc(-c2cccnc2SC2CCCC2)cc1F` [Example 213, 4-{[4-(2-cyclopentylsulfanyl-pyridin-3-yl)-2-fluoro-phenyl]-methyl-amino}-butyric acid], for which the EC50 was below 200 nM. Next, `CC(C)Oc1ncccc1-c1cc(F)c(N(C)CCCC(=O)O)c(F)c1` [Example 214, 4-{[2,6-difluoro-4-(2-isopropoxy-pyridin-3-yl)-phenyl]-methyl-amino}-butyric acid]: 200 to 2000 nM; `CN(CCCC(=O)O)c1c(F)cc(-c2ccccc2NC2CCCC2)cc1F` [Example 215, 4-[(2′-cyclopentylamino-3,5-difluoro-biphenyl-4-yl)-methyl-amino]-butyric acid]: below 200 nM. As for `CC(C)Oc1ccc(F)cc1-c1cc(F)c(N(C)CCCC(=O)O)c(F)c1` [Example 216, 4-[methyl-(3,5,5′-trifluoro-2′-isopropoxy-biphenyl-4-yl)-amino]-butyric acid], the figure is below 200 nM; as for `Cc1cnc(OC2CCCC2)c(-c2cc(F)c(N(C)CCCC(=O)O)c(F)c2)c1` [Example 217, 4-{[4-(2-cyclopentyloxy-5-methyl-pyridin-3-yl)-2,6-difluoro-phenyl]-methyl-amino}-butyric acid], below 200 nM; as for `CN(CCCC(=O)O)c1c(F)cc(-c2cccnc2OCC2CCC2)cc1F` [Example 218, 4-{[4-(2-cyclobutylmethoxy-pyridin-3-yl)-2,6-difluoro-phenyl]-methyl-amino}-butyric acid], below 200 nM. With `COc1ncccc1-c1cc(F)c(N(C)CCCC(=O)O)c(F)c1` [Example 219, 4-{[2,6-difluoro-4-(2-methoxy-pyridin-3-yl)-phenyl]-methyl-amino}-butyric acid], the EC50 is 2000 to 20000 nM. Next, `CN(CCCC(=O)O)c1c(F)cc(-c2ccccc2N2CCCC2)cc1F` [Example 221, 4-[(3,5-difluoro-2′-pyrrolidin-1-yl-biphenyl-4-yl)-methyl-amino]-butyric acid]: below 200 nM. With `CNc1ccccc1-c1cc(F)c(N(C)CCCC(=O)O)c(F)c1` [Example 222, 4-[(3,5-difluoro-2′-methylamino-biphenyl-4-yl)-methyl-amino]-butyric acid], the EC50 fell in the range of 200 to 2000 nM. On to `CC(C)N(C)c1ccccc1-c1cc(F)c(N(C)CCCC(=O)O)c(F)c1` [Example 223, 4-{[3,5-difluoro-2′-(isopropyl-methyl-amino)-biphenyl-4-yl]-methyl-amino}-butyric acid], for which the EC50 is below 200 nM. As for `CCN(CCCC(=O)O)c1c(F)cc(-c2cccnc2SC2CCC2)cc1F` [Example 224, 4-{[4-(2-cyclobutylsulfanyl-pyridin-3-yl)-2,6-difluoro-phenyl]-ethyl-amino}-butyric acid], the figure is 200 to 2000 nM; as for `CCN(CCCC(=O)O)c1c(F)cc(-c2cccnc2OCC2CCC2)cc1F` [Example 225, 4-{[4-(2-cyclobutylmethoxy-pyridin-3-yl)-2,6-difluoro-phenyl]-ethyl-amino}-butyric acid], 200 to 2000 nM. As for `CCN(CCCC(=O)O)c1c(F)cc(-c2cccnc2OC(C)C)cc1F` [Example 226, 4-{[2,6-difluoro-4-(2-isopropoxy-pyridin-3-yl)-phenyl]-ethyl-amino}-butyric acid], the figure is 200 to 2000 nM; as for `C[C@H](CCCC(=O)O)c1c(F)cc(-c2cccnc2SC2CCC2)cc1F` [Example 227, (R)-5-[4-(2-cyclobutylsulfanyl-pyridin-3-yl)-2,6-difluoro-phenyl]-hexanoic acid], below 200 nM; as for `C[C@H](C/C=C/C(=O)O)c1c(F)cc(-c2cccnc2SC2CCC2)cc1F` [Example 228, (E)-(R)-5-[4-(2-cyclobutylsulfanyl-pyridin-3-yl)-2,6-difluoro-phenyl]-hex-2-enoic acid], below 200 nM. Next, `C[C@@H](CCCC(=O)O)c1c(F)cc(-c2cccnc2SC2CCC2)cc1F` [Example 229, (S)-5-[4-(2-cyclobutylsulfanyl-pyridin-3-yl)-2,6-difluoro-phenyl]-hexanoic acid]: below 200 nM; `CC(CCCC(=O)O)c1c(F)cc(-c2cccnc2OC2CCOC2)cc1F` (centres unmarked) [Example 230, 5-{2,6-difluoro-4-[2-(tetrahydro-furan-3-yloxy)-pyridin-3-yl]-phenyl}-hexanoic acid]: below 200 nM. As to `CC(CCCC(=O)O)c1c(F)cc(-c2cccnc2OC2CCOCC2)cc1F` (centres unmarked) [Example 231, 5-{2,6-difluoro-4-[2-(tetrahydro-pyran-4-yloxy)-pyridin-3-yl]-phenyl}-hexanoic acid], the EC50 was below 200 nM. As for `CC(CCCC(=O)O)c1c(F)cc(-c2cccnc2OC2COC2)cc1F` (centres unmarked) [Example 232, 5-{2,6-difluoro-4-[2-(oxetan-3-yloxy)-pyridin-3-yl]-phenyl}-hexanoic acid], the figure is 200 to 2000 nM. As for `O=C(O)CCCOc1ccc(-c2cccnc2OC2CCC2)cc1F` [Example 233, 4-[4-(2-cyclobutoxy-pyridin-3-yl)-2-fluoro-phenoxy]-butyric acid], the figure is 200 to 2000 nM; as for `O=C(O)CCCOc1ccc(-c2cccnc2OC2CCCC2)cc1F` [Example 234, 4-[4-(2-cyclopentyloxy-pyridin-3-yl)-2-fluoro-phenoxy]-butyric acid], below 200 nM. As for `O=C(O)CCCOc1ccc(-c2cccnc2SC2CCC2)cc1F` [Example 235, 4-[4-(2-cyclobutylsulfanyl-pyridin-3-yl)-2-fluoro-phenoxy]-butyric acid], the figure is below 200 nM. Regarding `O=C(O)CCCOc1ccc(-c2cccnc2SC2CCCC2)cc1F` [Example 236, 4-[4-(2-cyclopentylsulfanyl-pyridin-3-yl)-2-fluoro-phenoxy]-butyric acid], the EC50 was below 200 nM. Next, `CC(CCCCC(=O)O)c1c(F)cc(-c2cccnc2OC2CCCC2)cc1F` (centres unmarked) [Example 237, 6-[4-(2-cyclopentyloxy-pyridin-3-yl)-2,6-difluoro-phenyl]-heptanoic acid]: below 200 nM; `CC(CCCCC(=O)O)c1c(F)cc(-c2cccnc2SC2CCCC2)cc1F` (centres unmarked) [Example 238, 6-[4-(2-cyclopentylsulfanyl-pyridin-3-yl)-2,6-difluoro-phenyl]-heptanoic acid]: below 200 nM.
